Experiments:
[1] = Antiproliferative activity against human EFM-192A cells assessed as reduction in cell growth measured for 24 hrs by MTT assay; type: functional, cell-based
[2] = Growth inhibition of human Triple-negative breast cancer cell incubated for 24 hrs by MTT assay; type: functional
[3] = biological target: Serine/threonine-protein kinase mTOR (Homo sapiens, UniProt P42345); test: Inhibition of mTOR (unknown origin)
MDA-MB-231 = test: Antiproliferative activity against human MDA-MB-231 cells assessed as reduction in cell viability by MTT assay; type: functional, cell-based
[4] = biological target: Phosphatidylinositol 4,5-bisphosphate 3-kinase catalytic subunit alpha isoform (Homo sapiens, UniProt P42336); test: Inhibition of PI3Kalpha (unknown origin)
Chain of Phosphatidylinositol 4,5-bisphosphate 3-kinase catalytic subunit alpha isoform (P42336 whole entry, canonical isoform): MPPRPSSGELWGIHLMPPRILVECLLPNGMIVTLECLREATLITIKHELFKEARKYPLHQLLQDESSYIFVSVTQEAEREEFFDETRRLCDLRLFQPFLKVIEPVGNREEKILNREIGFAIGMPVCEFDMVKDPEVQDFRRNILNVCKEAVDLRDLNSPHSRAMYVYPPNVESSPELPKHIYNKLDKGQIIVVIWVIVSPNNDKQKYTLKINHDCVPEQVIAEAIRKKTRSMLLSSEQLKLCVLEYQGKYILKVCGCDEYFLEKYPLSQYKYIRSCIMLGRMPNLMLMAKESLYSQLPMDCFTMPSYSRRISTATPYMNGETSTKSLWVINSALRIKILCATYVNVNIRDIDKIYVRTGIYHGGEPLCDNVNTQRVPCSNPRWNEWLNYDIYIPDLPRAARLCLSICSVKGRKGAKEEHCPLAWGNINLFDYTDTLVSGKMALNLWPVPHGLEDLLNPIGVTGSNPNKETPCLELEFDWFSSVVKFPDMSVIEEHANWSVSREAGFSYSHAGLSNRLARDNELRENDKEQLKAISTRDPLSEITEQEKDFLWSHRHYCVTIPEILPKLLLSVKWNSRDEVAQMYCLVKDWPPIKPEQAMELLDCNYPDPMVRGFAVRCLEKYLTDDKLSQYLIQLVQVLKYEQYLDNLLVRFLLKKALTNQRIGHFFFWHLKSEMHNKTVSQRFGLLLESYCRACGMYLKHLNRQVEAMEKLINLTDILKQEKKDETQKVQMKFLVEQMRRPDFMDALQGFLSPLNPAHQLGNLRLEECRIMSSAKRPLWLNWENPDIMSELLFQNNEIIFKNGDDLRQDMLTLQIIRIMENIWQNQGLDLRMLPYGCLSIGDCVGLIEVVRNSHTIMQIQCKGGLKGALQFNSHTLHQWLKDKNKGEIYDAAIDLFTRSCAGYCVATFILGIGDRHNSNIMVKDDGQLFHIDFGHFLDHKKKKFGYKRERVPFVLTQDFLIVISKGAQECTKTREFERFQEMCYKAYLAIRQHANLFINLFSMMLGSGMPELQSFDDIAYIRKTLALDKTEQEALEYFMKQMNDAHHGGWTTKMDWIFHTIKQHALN

MCF7 = test: Antiproliferative activity against human MCF7 cells assessed as reduction in cell viability by MTT assay; type: functional, cell-based

## COc1ccc(CCc2cc(OC)c(OC)c(OC)c2)cc1O
[1]
  IC50: 78.6 nM

## N#Cc1ccc(CN2C(=O)c3cc4ccccc4n3C[C@H]2C(=O)NCc2ccccc2)cc1
[2]
  GI50: 2960 nM

## CS(=O)(=O)N1CCN(Cc2ccc(-c3nc(-c4ccc(NC(=O)Nc5cccnc5)cc4)nc(N4CCOCC4)n3)s2)CC1
[3]
  IC50: 60.8 nM
MDA-MB-231
  IC50: 2 nM
[4]
  IC50: 291 nM
MCF7
  IC50: 2 nM

— ChEMBL document CHEMBL6092127, “Recent advancement in developing small molecular inhibitors targeting key kinase pathways against triple-negative breast cancer” (Bioorg Med Chem, 2024)
